Common to all, as to type: functional
One experiment concerns Aspergillus niger. The experiment is described as follows: Antifungal activity against Aspergillus niger after 48 hrs by MTT colorimetric method. A general note: Formazan colour is commonly taken as a measure of viable cells.
The next experiment deals with Escherichia coli. The experiment is described as follows: Antibacterial activity against Escherichia coli after 24 hrs by MTT colorimetric method.
In another experiment the test system is Bacillus subtilis. The experiment is described as follows: Antibacterial activity against Bacillus subtilis after 24 hrs by MTT colorimetric method.
Another experiment deals with Trichophyton rubrum. Kind of experiment: Antifungal activity against Trichophyton rubrum after 48 hrs by MTT colorimetric method.
Another experiment has as its system Pseudomonas fluorescens. Kind of experiment: Antibacterial activity against Pseudomonas fluorescens after 24 hrs by MTT colorimetric method.
For the next experiment, the system named is Staphylococcus aureus. The experiment is described as follows: Antibacterial activity against Staphylococcus aureus after 24 hrs by MTT colorimetric method.
Another experiment deals with Candida albicans. Kind of experiment: Antifungal activity against Candida albicans after 48 hrs by MTT colorimetric method.

Values after ≈ are worked out from the molar mass of the structure shown. Some results are limits rather than exact numbers.

One may read the MIC as the lowest concentration that inhibits growth of the organism. Higher therefore signals a less susceptible organism.

Turning to `CC1(C)CC(/N=C/c2cc(Cl)ccc2O)CC(C)(C)N1`, the MIC is above 50 µg/mL against Aspergillus niger; above 50 µg/mL against Escherichia coli; above 50 µg/mL with Bacillus subtilis; above 50 µg/mL in the experiment with Trichophyton rubrum; 40.5 µg/mL (≈ 137 µM) with Pseudomonas fluorescens; above 50 µg/mL in the experiment on Staphylococcus aureus. The same molecule registered an MIC in the experiment on Candida albicans above 50 µg/mL.
In the case of `OCC/N=C/c1cc(Cl)ccc1O`, the MIC with Aspergillus niger was above 50 µg/mL; with Escherichia coli it was above 50 µg/mL; in the experiment on Bacillus subtilis, above 50 µg/mL; in the experiment with Trichophyton rubrum it was above 50 µg/mL; against Pseudomonas fluorescens, above 50 µg/mL; in the experiment on Staphylococcus aureus it was 15.5 µg/mL (≈ 77.6 µM). Moreover, the MIC with Candida albicans was 12.5 µg/mL (≈ 62.6 µM).
Turning to `CCN(CC)CCC/N=C/c1cc(Cl)ccc1O`, the MIC against Aspergillus niger, with Escherichia coli, in the experiment on Bacillus subtilis, with Trichophyton rubrum, with Pseudomonas fluorescens and in the experiment with Staphylococcus aureus was above 50 µg/mL throughout. Also, the MIC in the experiment on Candida albicans is above 50 µg/mL.
With `CN(C)CCC/N=C/c1cc(Cl)ccc1O`, the minimum inhibitory concentration (MIC) with Aspergillus niger, in the experiment with Escherichia coli, in the experiment on Bacillus subtilis, against Trichophyton rubrum, with Pseudomonas fluorescens and in the experiment on Staphylococcus aureus was above 50 µg/mL each time. In the experiment on Candida albicans, this molecule showed an MIC above 50 µg/mL.
As for `CC(C/N=C/c1cc(Cl)ccc1O)/N=C/c1cc(Cl)ccc1O` (stereo unspecified), the MIC is above 50 µg/mL in the experiment on Aspergillus niger; 4.9 µg/mL (≈ 14 µM) in the experiment with Escherichia coli; 1.8 µg/mL (≈ 5.12 µM) against Bacillus subtilis; above 50 µg/mL in the experiment on Trichophyton rubrum; 3.6 µg/mL (≈ 10.2 µM) against Pseudomonas fluorescens; above 50 µg/mL in the experiment on Staphylococcus aureus. In addition, the MIC with Candida albicans is above 50 µg/mL.
As for `Oc1ccc(Cl)cc1/C=N/CC1CCCC(C/N=C/c2cc(Cl)ccc2O)C1` (stereo unspecified), the MIC with Aspergillus niger, against Escherichia coli, in the experiment on Bacillus subtilis, in the experiment on Trichophyton rubrum, in the experiment with Pseudomonas fluorescens and against Staphylococcus aureus was above 50 µg/mL each time. Further, the MIC against Candida albicans was above 50 µg/mL.
Regarding `Oc1ccc(Cl)cc1/C=N/CCC/N=C/c1cc(Cl)ccc1O`, the MIC is above 50 µg/mL with Aspergillus niger; 5 µg/mL (≈ 14.2 µM) with Escherichia coli; above 50 µg/mL against Bacillus subtilis; above 50 µg/mL with Trichophyton rubrum; 4.5 µg/mL (≈ 12.8 µM) against Pseudomonas fluorescens; above 50 µg/mL against Staphylococcus aureus. Also, the minimum inhibitory concentration (MIC) against Candida albicans is above 50 µg/mL.
Take `Oc1ccc(Cl)cc1/C=N/CCCN1CCOCC1`: the MIC in the experiment with Aspergillus niger was above 50 µg/mL; in the experiment with Escherichia coli, above 50 µg/mL; against Bacillus subtilis, above 50 µg/mL; in the experiment with Trichophyton rubrum it was above 50 µg/mL; against Pseudomonas fluorescens it was above 50 µg/mL; in the experiment on Staphylococcus aureus, 18.5 µg/mL (≈ 65.4 µM). The molecule further yielded an MIC in the experiment on Candida albicans above 50 µg/mL.
Consider `Oc1ccc(Cl)cc1/C=N/Cc1cccnc1`, for which the MIC is above 50 µg/mL in the experiment with Aspergillus niger; above 50 µg/mL in the experiment with Escherichia coli; above 50 µg/mL in the experiment on Bacillus subtilis; above 50 µg/mL with Trichophyton rubrum; 12.5 µg/mL (≈ 50.7 µM) with Pseudomonas fluorescens; 19.5 µg/mL (≈ 79 µM) in the experiment with Staphylococcus aureus. The same molecule came in with an MIC against Candida albicans above 50 µg/mL.
As for `O=[N+]([O-])c1ccc(/N=C/c2cc(Cl)ccc2O)cc1`, the MIC against Aspergillus niger is above 50 µg/mL; against Escherichia coli, above 50 µg/mL; in the experiment on Bacillus subtilis it was above 50 µg/mL; with Trichophyton rubrum it was above 50 µg/mL; in the experiment with Pseudomonas fluorescens, above 50 µg/mL; in the experiment on Staphylococcus aureus, 18.5 µg/mL (≈ 66.9 µM). The same molecule showed an MIC with Candida albicans above 50 µg/mL.
For the molecule `Oc1ccc(Cl)cc1/C=N/CCCCCC/N=C/c1cc(Cl)ccc1O`, the minimum inhibitory concentration (MIC) in the experiment on Aspergillus niger, in the experiment on Escherichia coli, against Bacillus subtilis, against Trichophyton rubrum, with Pseudomonas fluorescens and with Staphylococcus aureus was above 50 µg/mL in each case. For the same molecule, the MIC with Candida albicans was above 50 µg/mL.
In the case of `Oc1ccc(Cl)cc1/C=N/C1CCCCC1`, the MIC with Aspergillus niger was above 50 µg/mL; in the experiment with Escherichia coli, 48.6 µg/mL (≈ 204 µM); with Bacillus subtilis, above 50 µg/mL; in the experiment on Trichophyton rubrum, above 50 µg/mL; against Pseudomonas fluorescens it was 12.5 µg/mL (≈ 52.6 µM); in the experiment on Staphylococcus aureus, 25 µg/mL (≈ 105 µM). The MIC in the experiment with Candida albicans is above 50 µg/mL.
Take `Oc1ccc(Cl)cc1/C=N/Cc1ccccc1`: the MIC in the experiment on Aspergillus niger is above 50 µg/mL; in the experiment with Escherichia coli, 3.1 µg/mL (≈ 12.6 µM); with Bacillus subtilis it was above 50 µg/mL; with Trichophyton rubrum, above 50 µg/mL; against Pseudomonas fluorescens, 3.2 µg/mL (≈ 13 µM); against Staphylococcus aureus it was above 50 µg/mL. In the experiment with Candida albicans, the minimal inhibitory concentration (MIC) is above 50 µg/mL.
Consider `CC(=O)N1CCN(c2ccc(OC[C@H]3CO[C@](Cn4ccnc4)(c4ccc(Cl)cc4Cl)O3)cc2)CC1` [KETOCONAZOLE], for which the MIC was 7.8 µg/mL (≈ 14.7 µM) in the experiment with Aspergillus niger; above 50 µg/mL in the experiment on Escherichia coli; above 50 µg/mL in the experiment with Bacillus subtilis; 3.9 µg/mL (≈ 7.34 µM) in the experiment with Trichophyton rubrum; above 50 µg/mL in the experiment on Pseudomonas fluorescens; above 50 µg/mL with Staphylococcus aureus. In addition, it took 3.9 µg/mL (≈ 7.34 µM) to inhibit growth in the experiment on Candida albicans (MIC).
Take `Oc1ccc(Cl)cc1/C=N/C1CCCC1`: the minimal inhibitory concentration (MIC) is above 50 µg/mL in the experiment on Aspergillus niger; 4.1 µg/mL (≈ 18.3 µM) against Escherichia coli; above 50 µg/mL against Bacillus subtilis; above 50 µg/mL against Trichophyton rubrum; 3.4 µg/mL (≈ 15.2 µM) in the experiment on Pseudomonas fluorescens; above 50 µg/mL against Staphylococcus aureus. For the same molecule, in the experiment on Candida albicans, the MIC was above 50 µg/mL.
On to `Oc1ccc(Cl)cc1/C=N/Cc1ccc(F)cc1`, for which the MIC in the experiment on Aspergillus niger was 47.5 µg/mL (≈ 180 µM); in the experiment on Escherichia coli, 1.6 µg/mL (≈ 6.07 µM); with Bacillus subtilis it was 45.2 µg/mL (≈ 171 µM); against Trichophyton rubrum, above 50 µg/mL; in the experiment on Pseudomonas fluorescens, 2.8 µg/mL (≈ 10.6 µM); in the experiment on Staphylococcus aureus it was 3.4 µg/mL (≈ 12.9 µM). This molecule had a minimal inhibitory concentration (MIC) in the experiment on Candida albicans above 50 µg/mL.
Take `CN(CCC/N=C/c1cc(Cl)ccc1O)CCC/N=C/c1cc(Cl)ccc1O`: the MIC against Aspergillus niger, against Escherichia coli, against Bacillus subtilis, against Trichophyton rubrum, against Pseudomonas fluorescens and against Staphylococcus aureus was above 50 µg/mL in each case. This molecule showed an MIC in the experiment with Candida albicans above 50 µg/mL.
Take `NC[C@H]1O[C@H](O[C@H]2[C@H](O)[C@@H](O[C@H]3O[C@H](CO)[C@@H](O)[C@H](N)[C@H]3O)[C@H](N)C[C@@H]2N)[C@H](O)[C@@H](O)[C@@H]1O` [KANAMYCIN]: the MIC is above 50 µg/mL with Aspergillus niger; 3.9 µg/mL (≈ 8.05 µM) with Escherichia coli; 0.39 µg/mL (≈ 0.805 µM) with Bacillus subtilis; above 50 µg/mL in the experiment with Trichophyton rubrum; 3.9 µg/mL (≈ 8.05 µM) against Pseudomonas fluorescens; 1 µg/mL (≈ 2.06 µM) in the experiment on Staphylococcus aureus. Also, the MIC in the experiment with Candida albicans was above 50 µg/mL.
Take `Oc1ccc(Cl)cc1/C=N/CC1CCCCC1`: the MIC against Aspergillus niger, with Escherichia coli, against Bacillus subtilis, in the experiment with Trichophyton rubrum, with Pseudomonas fluorescens and in the experiment on Staphylococcus aureus was above 50 µg/mL throughout. In the experiment with Candida albicans, the MIC was above 50 µg/mL.
As to `Oc1ccc(Cl)cc1/C=N/CC/N=C/c1cc(Cl)ccc1O`, the MIC was above 50 µg/mL with Aspergillus niger; above 50 µg/mL against Escherichia coli; above 50 µg/mL with Bacillus subtilis; above 50 µg/mL with Trichophyton rubrum; 2.8 µg/mL (≈ 8.3 µM) with Pseudomonas fluorescens; above 50 µg/mL against Staphylococcus aureus. In addition, the MIC in the experiment on Candida albicans was above 50 µg/mL.
For the molecule `Oc1ccc(Cl)cc1/C=N/Cc1ccco1`, the MIC is above 50 µg/mL in the experiment with Aspergillus niger; 5.7 µg/mL (≈ 24.2 µM) with Escherichia coli; 49.8 µg/mL (≈ 211 µM) in the experiment with Bacillus subtilis; above 50 µg/mL against Trichophyton rubrum; 5.2 µg/mL (≈ 22.1 µM) in the experiment with Pseudomonas fluorescens; above 50 µg/mL with Staphylococcus aureus. Further, in the experiment on Candida albicans, the MIC is above 50 µg/mL.
Regarding `Oc1ccc(CC/N=C/c2cc(Cl)ccc2O)cc1`, the MIC in the experiment with Aspergillus niger was above 50 µg/mL; against Escherichia coli, above 50 µg/mL; in the experiment on Bacillus subtilis, 48.5 µg/mL (≈ 176 µM); with Trichophyton rubrum, above 50 µg/mL; against Pseudomonas fluorescens, 3.1 µg/mL (≈ 11.2 µM); with Staphylococcus aureus, 1.8 µg/mL (≈ 6.53 µM). In the experiment on Candida albicans, this molecule returned an MIC above 50 µg/mL.
As for `Oc1ccc(Cl)cc1/C=N/CCN1CCNCC1`, the MIC in the experiment with Aspergillus niger is above 50 µg/mL; with Escherichia coli, above 50 µg/mL; with Bacillus subtilis it was above 50 µg/mL; with Trichophyton rubrum, above 50 µg/mL; in the experiment on Pseudomonas fluorescens it was above 50 µg/mL; in the experiment with Staphylococcus aureus, 22.5 µg/mL (≈ 84 µM). The molecule also came in with an MIC against Candida albicans above 50 µg/mL.
With `Oc1ccc(Cl)cc1/C=N/CCNCC/N=C/c1cc(Cl)ccc1O`, the MIC against Aspergillus niger is above 50 µg/mL; with Escherichia coli, above 50 µg/mL; with Bacillus subtilis, above 50 µg/mL; against Trichophyton rubrum it was above 50 µg/mL; in the experiment with Pseudomonas fluorescens, 32.5 µg/mL (≈ 85.5 µM); in the experiment on Staphylococcus aureus, above 50 µg/mL. In the experiment on Candida albicans, this molecule had an MIC above 50 µg/mL.
Regarding `Oc1ccc(Cl)cc1/C=N/CCN1CCOCC1`, the MIC against Aspergillus niger was above 50 µg/mL; against Escherichia coli, 3.5 µg/mL (≈ 13 µM); in the experiment on Bacillus subtilis, above 50 µg/mL; in the experiment on Trichophyton rubrum it was above 50 µg/mL; against Pseudomonas fluorescens it was 2.5 µg/mL (≈ 9.3 µM); against Staphylococcus aureus, above 50 µg/mL. The MIC in the experiment on Candida albicans was above 50 µg/mL.
Consider `Oc1ccc(Cl)cc1/C=N/C1CCN(Cc2ccccc2)CC1`, for which the MIC in the experiment on Aspergillus niger, with Escherichia coli, in the experiment with Bacillus subtilis, against Trichophyton rubrum, against Pseudomonas fluorescens and in the experiment on Staphylococcus aureus was above 50 µg/mL in each case. The molecule also had an MIC against Candida albicans above 50 µg/mL.
Take `CC1(/N=C/c2cc(Cl)ccc2O)CCC(C(C)(C)/N=C/c2cc(Cl)ccc2O)CC1` (stereo unspecified): the MIC in the experiment with Aspergillus niger, with Escherichia coli, with Bacillus subtilis, against Trichophyton rubrum, against Pseudomonas fluorescens and in the experiment on Staphylococcus aureus was above 50 µg/mL each time. This molecule gave an MIC with Candida albicans above 50 µg/mL.
Take `CCOC(=O)N1CCC(/N=C/c2cc(Cl)ccc2O)CC1`: the MIC with Aspergillus niger, in the experiment with Escherichia coli, in the experiment on Bacillus subtilis, against Trichophyton rubrum, in the experiment on Pseudomonas fluorescens and in the experiment with Staphylococcus aureus was above 50 µg/mL in each case. In the experiment with Candida albicans, this molecule had an MIC above 50 µg/mL.

For the origin of these results see ChEMBL document CHEMBL1144592, “Synthesis and antimicrobial activities of Schiff bases derived from 5-chloro-salicylaldehyde” (2007).
